Key:
Format in all cases: functional, organism-based
[1] = target: T1, ATP-binding cassette sub-family C member 3 (Rattus norvegicus, UniProt O88563); experiment: (§1) TP_TRANSPORTER: quantitative PCR in vivo, liver of male Sprague-Dawley rat
[2] = target: T2, Solute carrier organic anion transporter family member 1A4 (Rattus norvegicus, UniProt O35913); experiment: as §1
T2 sequence (O35913 whole entry): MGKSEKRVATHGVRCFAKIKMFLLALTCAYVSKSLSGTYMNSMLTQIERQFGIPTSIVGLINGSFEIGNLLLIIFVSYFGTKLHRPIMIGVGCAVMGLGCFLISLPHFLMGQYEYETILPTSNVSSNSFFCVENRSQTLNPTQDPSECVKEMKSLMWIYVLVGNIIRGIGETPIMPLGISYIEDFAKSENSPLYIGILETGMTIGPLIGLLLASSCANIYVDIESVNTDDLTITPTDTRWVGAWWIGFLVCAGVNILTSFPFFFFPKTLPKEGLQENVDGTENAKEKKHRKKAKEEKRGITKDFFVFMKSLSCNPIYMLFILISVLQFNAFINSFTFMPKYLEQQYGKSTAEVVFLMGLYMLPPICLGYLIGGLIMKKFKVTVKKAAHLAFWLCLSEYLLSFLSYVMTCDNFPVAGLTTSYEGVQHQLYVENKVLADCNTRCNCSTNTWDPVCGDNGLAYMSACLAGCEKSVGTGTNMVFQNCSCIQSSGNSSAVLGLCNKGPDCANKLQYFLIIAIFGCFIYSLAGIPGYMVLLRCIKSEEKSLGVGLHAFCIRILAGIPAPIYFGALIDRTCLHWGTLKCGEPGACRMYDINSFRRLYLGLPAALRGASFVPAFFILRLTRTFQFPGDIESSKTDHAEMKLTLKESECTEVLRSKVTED

[3] = target: T1, ATP-binding cassette sub-family C member 3; experiment: TP_TRANSPORTER: quantitative PCR in vivo, […] of male Sprague-Dawley rat

Measured: Activity

T1 sequence (O88563 whole entry): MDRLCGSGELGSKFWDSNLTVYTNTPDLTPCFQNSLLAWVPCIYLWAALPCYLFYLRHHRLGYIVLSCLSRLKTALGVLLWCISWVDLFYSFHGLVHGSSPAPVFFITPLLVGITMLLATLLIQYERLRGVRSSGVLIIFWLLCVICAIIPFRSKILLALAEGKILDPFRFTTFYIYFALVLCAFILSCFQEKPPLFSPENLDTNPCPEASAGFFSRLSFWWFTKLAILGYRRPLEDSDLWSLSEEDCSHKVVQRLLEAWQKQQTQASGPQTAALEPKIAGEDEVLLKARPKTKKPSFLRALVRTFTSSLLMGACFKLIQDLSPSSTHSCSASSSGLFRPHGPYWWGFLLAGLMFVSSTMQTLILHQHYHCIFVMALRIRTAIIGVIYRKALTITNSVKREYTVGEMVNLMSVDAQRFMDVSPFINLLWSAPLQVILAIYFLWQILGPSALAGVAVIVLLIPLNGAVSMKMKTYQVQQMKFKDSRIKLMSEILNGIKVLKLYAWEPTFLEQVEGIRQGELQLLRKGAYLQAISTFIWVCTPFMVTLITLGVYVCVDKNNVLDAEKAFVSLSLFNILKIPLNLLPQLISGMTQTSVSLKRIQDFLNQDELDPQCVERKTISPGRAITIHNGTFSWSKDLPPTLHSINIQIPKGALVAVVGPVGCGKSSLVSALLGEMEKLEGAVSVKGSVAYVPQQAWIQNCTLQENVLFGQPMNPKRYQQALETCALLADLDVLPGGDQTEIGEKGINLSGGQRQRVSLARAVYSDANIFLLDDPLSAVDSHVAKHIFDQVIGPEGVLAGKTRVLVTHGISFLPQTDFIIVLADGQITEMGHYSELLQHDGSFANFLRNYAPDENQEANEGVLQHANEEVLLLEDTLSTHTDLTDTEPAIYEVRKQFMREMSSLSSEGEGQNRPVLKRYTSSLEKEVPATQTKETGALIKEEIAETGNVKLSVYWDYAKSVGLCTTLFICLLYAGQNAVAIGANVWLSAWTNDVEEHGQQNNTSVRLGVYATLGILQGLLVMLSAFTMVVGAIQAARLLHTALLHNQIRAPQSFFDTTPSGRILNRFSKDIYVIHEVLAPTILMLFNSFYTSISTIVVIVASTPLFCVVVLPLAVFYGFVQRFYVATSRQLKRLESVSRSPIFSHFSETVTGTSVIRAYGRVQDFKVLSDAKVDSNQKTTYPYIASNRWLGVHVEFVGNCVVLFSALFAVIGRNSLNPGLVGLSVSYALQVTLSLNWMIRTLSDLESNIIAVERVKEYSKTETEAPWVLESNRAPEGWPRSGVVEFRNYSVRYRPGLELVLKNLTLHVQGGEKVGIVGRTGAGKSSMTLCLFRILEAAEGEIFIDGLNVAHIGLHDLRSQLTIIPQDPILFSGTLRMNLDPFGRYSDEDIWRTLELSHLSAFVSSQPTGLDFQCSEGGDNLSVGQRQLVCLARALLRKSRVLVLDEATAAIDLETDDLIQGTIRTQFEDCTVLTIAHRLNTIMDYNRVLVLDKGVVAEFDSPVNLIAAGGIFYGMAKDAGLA

c1cnc2c(c1)ccc1ncccc12
inducer []: all assays above

Source: ChEMBL document CHEMBL2073815, “Induction of hepatic phase II drug-metabolizing enzymes by 1,7-phenanthroline in rats is accompanied by induction of MRP3” (Drug Metab Dispos, 2003)
